Data on four molecules can be found in PMC8865417, “Receptor Interaction Profiles of 4-Alkoxy-3,5-Dimethoxy-Phenethylamines (Mescaline Derivatives) and Related Amphetamines” (Frontiers in Pharmacology, 2022).

In assay [1] the target is T1, h5-HT2A receptor (Homo sapiens, UniProt P28223).
T1 construct: expressed in transfected cells; host or cells: HEK 293 cells (membrane preparations)
Particulars: read-out: h5-HT2A Receptor binding Ki ± SD; cited from earlier work.

A further assay has as its target human 5-HT2B receptor (Homo sapiens, UniProt P41595). Conditions: for EC50: h5-HT2B Activation potency EC50 ± SD, HEK 293 cells, calcium FLIPR, mean ± SD.
The next assay deals with T2, hNET (Homo sapiens, UniProt P23975).
T2 construct: expressed in transfected cells; host or cells: HEK 293 cells (membrane preparations)
Kind of assay: Radioligand binding at hNET (N-methyl-[3H]nisoxetine).

In assay [2] the target is T1, h5-HT2A receptor. Kind of assay: Radioligand binding at h5-HT2A receptor ([3H]ketanserin). Conditions: for Ki: h5-HT2A Receptor binding Ki ± SD, [3H]ketanserin, mean ± SD; for Selectivity 5-HT2A vs. 5-HT2C: binding ratio.
A further assay concerns the target T3, hDAT (Homo sapiens, UniProt Q01959).
T3 construct: expressed in transfected cells; host or cells: HEK 293 cells (membrane preparations)
Kind of assay: Radioligand binding at hDAT ([3H]WIN35,428).

In a further assay the test system is humans. Particulars: cited from earlier work.
In the next assay the target is T4, mouse TAAR1 (Mus musculus, UniProt Q923Y8).
T4 construct: expressed in transfected cells; host or cells: HEK 293 cells (membrane preparations)
Put plainly: Radioligand binding at mouse TAAR1 ([3H]RO5166017).

The next assay deals with T5, human TAAR1 (Homo sapiens, UniProt Q96RJ0).
T5 construct: expressed in transfected cells; host or cells: HEK 293 cells
T5 sequence (Q96RJ0 1-339): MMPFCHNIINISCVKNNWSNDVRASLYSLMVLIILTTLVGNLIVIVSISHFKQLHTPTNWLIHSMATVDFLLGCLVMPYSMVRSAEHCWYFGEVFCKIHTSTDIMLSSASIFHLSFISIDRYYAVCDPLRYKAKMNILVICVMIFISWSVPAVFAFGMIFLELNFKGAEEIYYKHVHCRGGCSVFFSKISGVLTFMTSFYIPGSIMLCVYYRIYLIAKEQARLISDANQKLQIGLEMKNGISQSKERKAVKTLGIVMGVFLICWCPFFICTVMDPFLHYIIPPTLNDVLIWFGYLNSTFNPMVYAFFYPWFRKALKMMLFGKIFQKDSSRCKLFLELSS
Kind of assay: Activity at the human TAAR1 (cAMP assay, HEK 293 cells). Type of assay: cell-based. The protocol:
Once 80–90% confluency was reached, the cells were collected by removing the medium, washing with PBS and then adding 5 ml of trypsin/EDTA solution for 5 min at 37°C. Next, 45 ml of medium was added and the entire mixture was transferred into a falcon tube. The tube was then centrifuged at room temperature for 3 min at 900 revolutions per minute (rpm). Next, the supernatant was removed in order to resuspend the remaining cell pellet in fresh medium to 5 × 10^5 cells/ml. Hundred microliter of the cells was transferred into a 96-well plate ([…]; BIOCOAT 6640, Becton Dickinson, Allschwil, Switzerland) and incubated for 20 h at 37°C.
For the cAMP assay, the aspirated medium was replaced with 50 μl PBS without Ca^2+ and Mg^2+ ions. Using snap inversion, the PBS was extracted and the plate was gently tapped against tissue. Next, 90 μl of Krebs-Ringer Bicarbonate buffer (KRB, Sigma-Aldrich) containing 1 mM IBMX was added and incubated for 60 min at 37°C and 5% CO2/95% air. Each test compound was examined in duplicate in a concentration range between 300 pM and 30 μM. A standard curve with a range of cAMP concentrations (0.13 nM–10 μM) was created for each 96-well plate. Each experiment was accompanied with a reference plate that included RO5256390, β-phenylethylamine and p-tyramine. The cells were exposed to either 30 μl of compound solution, 30 μl of β-phenylethylamine (as maximal response), or a basal control in PBS (containing 1 mM IBMX) for 40 min at 37°C. Next, under forceful shaking using black lids, the cells were exposed to 50 μl of 3× detection mix solution (composed of Ru-cAMP Alexa700 anti-cAMP antibody and lysis buffer) for 120 min at room temperature. Using the NanoScan reader (Innovate Optische Messtechnik, Berlin, Germany; 456 nm excitation wavelength; 630 and 700 nm emission wavelengths), the fluorescence was examined and the FRET signal was determined using the following equation; FRET (700 nm)- P × FRET (630 nm), where P = Ru (700 nm)/Ru (630 nm).

Assay [3] addresses T6, dopaminergic hD2 receptor (Homo sapiens, UniProt P14416).
T6 construct: expressed in transfected cells; host or cells: HEK 293 cells (membrane preparations)
Put plainly: Radioligand binding at dopaminergic hD2 receptor ([3H]spiperone).

The next assay addresses T7, hSERT (Homo sapiens, UniProt P31645).
T7 construct: expressed in transfected cells; host or cells: HEK 293 cells (membrane preparations)
Put plainly: Radioligand binding at hSERT ([3H]citalopram).

Another assay concerns the target T8, rat TAAR1 (Rattus norvegicus, UniProt Q923Y9).
T8 construct: expressed in transfected cells; host or cells: HEK 293 cells (membrane preparations)
Kind of assay: Radioligand binding at rat TAAR1 ([3H]RO5166017).

In the next assay the target is T9, h5-HT1A receptor (Homo sapiens, UniProt P08908).
T9 construct: expressed in transfected cells; host or cells: HEK 293 cells (membrane preparations)
T9 sequence (P08908 1-422): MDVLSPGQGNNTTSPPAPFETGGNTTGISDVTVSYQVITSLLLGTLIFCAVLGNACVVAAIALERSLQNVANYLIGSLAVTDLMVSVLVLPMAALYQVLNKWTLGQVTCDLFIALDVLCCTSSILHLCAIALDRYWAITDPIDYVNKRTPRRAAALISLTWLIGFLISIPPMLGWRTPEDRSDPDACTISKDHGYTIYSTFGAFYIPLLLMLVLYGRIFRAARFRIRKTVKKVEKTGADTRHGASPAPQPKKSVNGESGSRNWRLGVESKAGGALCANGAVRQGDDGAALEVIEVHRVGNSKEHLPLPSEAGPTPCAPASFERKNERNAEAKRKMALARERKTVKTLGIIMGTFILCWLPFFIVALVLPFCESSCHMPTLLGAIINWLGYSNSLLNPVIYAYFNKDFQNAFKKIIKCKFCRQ
Kind of assay: Radioligand binding at h5-HT1A receptor ([3H]8-OH-DPAT).

Another assay has as its target T10, hα1A adrenergic receptor (Homo sapiens, UniProt P35348).
T10 construct: expressed in transfected cells; host or cells: Chinese hamster ovary cells (membrane preparations)
T10 sequence (P35348 1-466): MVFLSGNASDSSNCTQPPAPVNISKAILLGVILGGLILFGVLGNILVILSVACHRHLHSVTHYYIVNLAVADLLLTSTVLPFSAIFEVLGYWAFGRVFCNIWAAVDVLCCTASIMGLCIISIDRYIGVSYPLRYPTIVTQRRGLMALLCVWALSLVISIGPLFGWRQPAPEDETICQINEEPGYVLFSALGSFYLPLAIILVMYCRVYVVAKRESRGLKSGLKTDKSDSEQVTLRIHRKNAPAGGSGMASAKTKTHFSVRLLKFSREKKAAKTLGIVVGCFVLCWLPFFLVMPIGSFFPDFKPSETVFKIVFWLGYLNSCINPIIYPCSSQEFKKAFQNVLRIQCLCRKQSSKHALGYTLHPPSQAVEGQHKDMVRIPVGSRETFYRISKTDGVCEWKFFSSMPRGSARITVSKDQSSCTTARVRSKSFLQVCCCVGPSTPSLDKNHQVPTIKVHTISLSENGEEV
Put plainly: Radioligand binding at hα1A adrenergic receptor ([3H]prazosin). Conditions: mean ± SD.

The target in the next assay is T11, hα2A adrenergic receptor (Homo sapiens, UniProt P08913).
T11 construct: expressed in transfected cells; host or cells: Chinese hamster lung cells (membrane preparations)
T11 sequence (P08913 1-465): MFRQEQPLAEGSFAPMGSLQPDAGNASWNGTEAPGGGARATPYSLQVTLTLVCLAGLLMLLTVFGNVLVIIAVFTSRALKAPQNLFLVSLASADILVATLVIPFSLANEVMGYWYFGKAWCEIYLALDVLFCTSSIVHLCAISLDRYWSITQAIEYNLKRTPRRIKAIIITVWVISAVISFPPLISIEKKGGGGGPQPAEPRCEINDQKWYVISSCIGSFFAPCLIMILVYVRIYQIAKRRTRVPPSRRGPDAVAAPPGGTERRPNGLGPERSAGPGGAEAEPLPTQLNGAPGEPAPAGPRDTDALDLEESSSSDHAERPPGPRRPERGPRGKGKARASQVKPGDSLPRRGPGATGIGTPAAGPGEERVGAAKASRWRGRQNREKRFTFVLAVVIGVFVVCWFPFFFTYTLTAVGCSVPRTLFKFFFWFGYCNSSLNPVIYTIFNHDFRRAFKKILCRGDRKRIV
Kind of assay: Radioligand binding at hα2A adrenergic receptor ([3H]rauwolscine).

The next assay has as its target human 5-HT2A receptor (Homo sapiens, UniProt P28223). Particulars: for Emax: NIH3T3, read-out: h5-HT2A Activation efficacy max ± SD, relative to 5-HT = 100%.
The target in another assay is T12, h5-HT2C receptor (Homo sapiens, UniProt P28335).
T12 construct: expressed in transfected cells; host or cells: HEK 293 cells (membrane preparations)
T12 sequence (P28335 33-458): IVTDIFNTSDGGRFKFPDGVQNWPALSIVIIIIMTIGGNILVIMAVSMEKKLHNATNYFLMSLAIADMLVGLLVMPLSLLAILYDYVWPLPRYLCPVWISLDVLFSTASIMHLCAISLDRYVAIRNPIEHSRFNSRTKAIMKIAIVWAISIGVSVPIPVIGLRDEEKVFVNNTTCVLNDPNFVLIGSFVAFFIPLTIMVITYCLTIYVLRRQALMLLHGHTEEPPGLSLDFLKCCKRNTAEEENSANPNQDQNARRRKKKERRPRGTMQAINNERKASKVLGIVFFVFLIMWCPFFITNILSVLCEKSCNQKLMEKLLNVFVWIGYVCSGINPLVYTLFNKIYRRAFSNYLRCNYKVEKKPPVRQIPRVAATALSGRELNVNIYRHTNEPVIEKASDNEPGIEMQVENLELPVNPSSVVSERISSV
Put plainly: biochemical. Conditions: [3H]mesulergine; mean ± SD; read-out: h5-HT2C Receptor binding Ki ± SD. Type of assay: binding.

In another assay the test system is head twitch response. Set-up: method as in Halberstadt et al. (2019). Particulars: ref Halberstadt et al. (2019); cited from earlier work.

Where two headings read alike, the source gives them in different places.

T4 sequence (Q923Y8 whole entry): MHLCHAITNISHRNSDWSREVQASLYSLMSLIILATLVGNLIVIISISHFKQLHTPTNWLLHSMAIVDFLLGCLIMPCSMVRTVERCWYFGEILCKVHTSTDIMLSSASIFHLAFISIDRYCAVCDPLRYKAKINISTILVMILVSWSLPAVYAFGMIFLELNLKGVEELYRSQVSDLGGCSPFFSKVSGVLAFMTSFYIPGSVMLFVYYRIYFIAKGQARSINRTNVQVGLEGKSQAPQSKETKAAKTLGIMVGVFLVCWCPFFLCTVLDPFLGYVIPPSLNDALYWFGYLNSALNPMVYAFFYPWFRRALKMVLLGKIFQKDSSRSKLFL
T6 sequence (P14416 whole entry): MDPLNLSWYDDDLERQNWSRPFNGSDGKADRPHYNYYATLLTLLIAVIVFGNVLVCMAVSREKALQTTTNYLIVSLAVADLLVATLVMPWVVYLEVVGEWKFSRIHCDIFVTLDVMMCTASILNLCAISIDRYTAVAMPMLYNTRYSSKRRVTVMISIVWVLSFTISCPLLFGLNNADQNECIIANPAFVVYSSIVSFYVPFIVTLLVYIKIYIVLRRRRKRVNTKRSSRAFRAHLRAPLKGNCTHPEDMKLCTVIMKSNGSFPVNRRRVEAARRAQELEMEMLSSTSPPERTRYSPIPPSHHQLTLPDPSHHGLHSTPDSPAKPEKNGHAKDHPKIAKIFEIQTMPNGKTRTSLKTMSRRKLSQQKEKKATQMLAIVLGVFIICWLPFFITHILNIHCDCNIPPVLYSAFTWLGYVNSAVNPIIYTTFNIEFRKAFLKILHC
T3 sequence (Q01959 whole entry): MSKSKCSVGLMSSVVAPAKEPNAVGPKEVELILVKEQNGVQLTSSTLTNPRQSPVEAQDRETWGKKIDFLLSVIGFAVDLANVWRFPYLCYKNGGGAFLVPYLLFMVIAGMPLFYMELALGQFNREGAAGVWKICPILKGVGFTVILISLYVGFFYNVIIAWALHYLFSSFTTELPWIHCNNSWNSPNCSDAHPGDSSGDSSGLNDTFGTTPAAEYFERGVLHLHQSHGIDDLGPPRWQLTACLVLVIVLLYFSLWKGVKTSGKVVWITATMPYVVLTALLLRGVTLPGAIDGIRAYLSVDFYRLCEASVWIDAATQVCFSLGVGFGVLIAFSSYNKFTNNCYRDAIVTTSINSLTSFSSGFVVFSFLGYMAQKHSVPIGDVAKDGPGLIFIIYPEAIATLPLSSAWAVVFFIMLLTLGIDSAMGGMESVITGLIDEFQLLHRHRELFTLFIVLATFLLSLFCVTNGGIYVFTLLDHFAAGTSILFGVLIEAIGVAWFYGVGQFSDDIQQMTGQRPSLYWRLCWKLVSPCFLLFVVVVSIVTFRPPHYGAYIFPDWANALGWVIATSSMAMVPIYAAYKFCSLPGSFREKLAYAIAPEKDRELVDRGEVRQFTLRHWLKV
T8 sequence (Q923Y9 whole entry): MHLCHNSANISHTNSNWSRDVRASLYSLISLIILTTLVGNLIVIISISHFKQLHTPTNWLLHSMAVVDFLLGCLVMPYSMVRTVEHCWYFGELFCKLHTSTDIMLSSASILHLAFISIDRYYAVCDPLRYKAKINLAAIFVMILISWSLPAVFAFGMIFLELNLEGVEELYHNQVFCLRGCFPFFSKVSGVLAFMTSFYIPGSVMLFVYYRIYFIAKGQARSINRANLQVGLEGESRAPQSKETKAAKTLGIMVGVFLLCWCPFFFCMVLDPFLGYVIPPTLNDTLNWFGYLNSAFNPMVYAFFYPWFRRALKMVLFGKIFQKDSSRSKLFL
T7 sequence (P31645 whole entry): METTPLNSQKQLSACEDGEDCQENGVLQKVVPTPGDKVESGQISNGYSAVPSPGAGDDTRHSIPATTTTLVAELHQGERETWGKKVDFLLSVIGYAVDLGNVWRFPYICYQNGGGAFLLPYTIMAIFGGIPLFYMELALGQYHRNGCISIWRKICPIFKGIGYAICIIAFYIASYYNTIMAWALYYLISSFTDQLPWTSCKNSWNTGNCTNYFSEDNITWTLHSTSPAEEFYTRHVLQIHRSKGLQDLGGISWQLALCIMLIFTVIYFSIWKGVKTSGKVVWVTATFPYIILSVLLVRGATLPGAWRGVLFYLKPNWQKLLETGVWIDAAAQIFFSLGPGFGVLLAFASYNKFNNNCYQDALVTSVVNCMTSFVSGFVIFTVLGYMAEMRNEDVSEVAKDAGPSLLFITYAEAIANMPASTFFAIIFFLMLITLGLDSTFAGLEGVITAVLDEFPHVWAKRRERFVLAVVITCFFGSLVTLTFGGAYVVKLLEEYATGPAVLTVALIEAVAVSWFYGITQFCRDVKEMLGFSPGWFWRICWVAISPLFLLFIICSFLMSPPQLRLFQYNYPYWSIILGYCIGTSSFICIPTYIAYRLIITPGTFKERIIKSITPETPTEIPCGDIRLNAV
Sequence of human 5-HT2A receptor (P28223 whole entry): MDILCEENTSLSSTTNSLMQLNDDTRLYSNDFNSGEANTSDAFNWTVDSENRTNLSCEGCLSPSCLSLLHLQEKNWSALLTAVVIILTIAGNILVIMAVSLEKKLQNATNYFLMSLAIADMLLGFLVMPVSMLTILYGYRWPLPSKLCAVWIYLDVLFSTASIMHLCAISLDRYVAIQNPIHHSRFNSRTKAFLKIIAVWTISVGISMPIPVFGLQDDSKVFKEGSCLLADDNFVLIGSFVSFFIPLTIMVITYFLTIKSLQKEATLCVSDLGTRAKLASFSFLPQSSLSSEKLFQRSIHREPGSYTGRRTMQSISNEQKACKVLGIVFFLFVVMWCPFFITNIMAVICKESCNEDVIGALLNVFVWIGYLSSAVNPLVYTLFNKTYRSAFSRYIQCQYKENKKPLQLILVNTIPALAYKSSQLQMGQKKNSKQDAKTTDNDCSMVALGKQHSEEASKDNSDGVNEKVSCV
T1 sequence (P28223 whole entry): as above
T2 sequence (P23975 whole entry): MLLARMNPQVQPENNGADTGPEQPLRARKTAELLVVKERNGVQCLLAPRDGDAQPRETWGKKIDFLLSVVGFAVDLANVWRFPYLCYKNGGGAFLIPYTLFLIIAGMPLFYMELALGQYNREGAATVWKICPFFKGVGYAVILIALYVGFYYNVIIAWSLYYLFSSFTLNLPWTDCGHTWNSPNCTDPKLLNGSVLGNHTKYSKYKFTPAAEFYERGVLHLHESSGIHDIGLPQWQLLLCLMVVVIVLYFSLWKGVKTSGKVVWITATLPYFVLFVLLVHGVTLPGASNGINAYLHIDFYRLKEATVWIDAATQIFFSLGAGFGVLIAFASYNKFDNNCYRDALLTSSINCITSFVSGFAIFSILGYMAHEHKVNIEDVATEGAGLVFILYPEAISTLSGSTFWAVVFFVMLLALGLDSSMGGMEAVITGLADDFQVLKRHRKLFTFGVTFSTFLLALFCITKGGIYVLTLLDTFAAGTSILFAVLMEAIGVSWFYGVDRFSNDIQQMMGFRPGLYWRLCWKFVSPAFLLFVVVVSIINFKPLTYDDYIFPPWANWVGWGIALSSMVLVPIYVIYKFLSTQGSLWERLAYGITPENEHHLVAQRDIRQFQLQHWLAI
Sequence of human 5-HT2B receptor (P41595 whole entry): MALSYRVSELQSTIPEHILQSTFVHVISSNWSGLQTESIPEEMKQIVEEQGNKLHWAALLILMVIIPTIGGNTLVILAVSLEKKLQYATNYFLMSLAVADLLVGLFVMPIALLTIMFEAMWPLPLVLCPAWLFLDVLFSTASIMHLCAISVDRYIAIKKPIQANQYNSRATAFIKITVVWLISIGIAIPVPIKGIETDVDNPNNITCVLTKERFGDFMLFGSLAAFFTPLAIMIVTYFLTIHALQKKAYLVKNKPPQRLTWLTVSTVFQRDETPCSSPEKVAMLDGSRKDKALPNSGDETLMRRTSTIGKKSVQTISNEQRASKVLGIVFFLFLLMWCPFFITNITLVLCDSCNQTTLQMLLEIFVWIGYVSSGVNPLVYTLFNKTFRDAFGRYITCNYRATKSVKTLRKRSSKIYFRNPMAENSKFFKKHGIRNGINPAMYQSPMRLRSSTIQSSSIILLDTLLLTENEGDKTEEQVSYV

On to `COc1cc(CCN)c(OC)cc1Br` [2C-B], for which the Ki on h5-HT2A receptor [1] is 0.0069 ± 0.0018 µM.

As to `COc1cc(CC(C)N)cc(OC)c1OC` (stereo not drawn) [compound 6, 3,4,5-trimethoxyamphetamine], the figures for the EC50 at human 5-HT2B receptor, on human TAAR1 and on human 5-HT2A receptor were more than 10 µM, more than 10 µM and 1.7 ± 0.4 µM, respectively. In addition, the inhibitory constant (Ki) on hNET is more than 9.7 µM; at h5-HT2A receptor [2], more than 12 µM; on hDAT it was more than 8.5 µM; on mouse TAAR1 it was 1.8 µM; in assay [3], more than 6.3 µM; at hSERT it was more than 7.5 µM. Further, the inhibitory constant (Ki) on rat TAAR1 was 3.2 µM; on h5-HT1A receptor, more than 5.6 µM; on hα1A adrenergic receptor, more than 8.7 µM; on hα2A adrenergic receptor, 4.03 µM. Besides, the Duration of action in the assay with humans (humans, ref Shulgin and Shulgin 1991, Shulgin and Shulgin 1997, Trachsel et al., 2013) was 6 to 8 h. For the same molecule, in the assay with humans (psychedelic dose in humans, ref Shulgin and Shulgin 1991, Shulgin and Shulgin 1997, Trachsel et al., 2013, listed as TMA), the Human oral dose is 100 to 250 mg. Further, the “Psychedelic / active dose in humans” value in the assay with humans (ref Shulgin and Shulgin 1991) is 100 to 200 mg. Also, the Emax on human 5-HT2A receptor was in the range of 40 to 73%.

As to `CCOc1c(OC)cc(CC(C)N)cc1OC` (stereo not drawn) [compound 21, 3,5-dimethoxy-4-ethoxyamphetamine], the Emax was in the range of 18 to 29% at human 5-HT2B receptor (HEK293, read-out: h5-HT2B Activation efficacy max ± SD, relative to 5-HT = 100%) and 86 to 102% at human 5-HT2A receptor. Also, the EC50 at human 5-HT2B receptor is 0.095 ± 0.13 µM; on human 5-HT2A receptor, 0.16 ± 0.05 µM. Also, the inhibitory constant (Ki) was more than 9.7 µM on hNET; 3.7 µM on h5-HT2A receptor [2]; 4.9 µM at h5-HT2C receptor; more than 8.5 µM on hDAT; more than 4.2 µM on mouse TAAR1; more than 6.3 µM in [3]. For the same molecule, the inhibition constant (Ki) was more than 7.5 µM on hSERT; more than 4.7 µM on rat TAAR1; more than 5.6 µM at h5-HT1A receptor; more than 8.7 µM at hα1A adrenergic receptor; more than 5.1 µM at hα2A adrenergic receptor. In addition, the “Selectivity 5-HT2A vs. 5-HT2C” value on h5-HT2A receptor [2] was 1.3. In addition, the Head twitch response entry with head twitch response is reported as “induced a head twitch response with almost identical potency”.

With `C=CCOc1c(OC)cc(CC(C)N)cc1OC` (stereo not drawn) [compound 31, 4-allyloxy-3,5-dimethoxyamphetamine], the values for the EC50 on human 5-HT2B receptor and at human 5-HT2A receptor were more than 10 µM and 0.19 ± 0.03 µM, respectively. Further, the Ki at hNET is more than 9.7 µM; on h5-HT2A receptor [2], 1.1 µM; at h5-HT2C receptor, 1.7 µM; at hDAT it was more than 8.5 µM; at mouse TAAR1, 3.3 µM; in assay [3] it was more than 6.3 µM. The Ki at hSERT was more than 7.5 µM; at rat TAAR1 it was 3.6 µM; at h5-HT1A receptor, more than 5.6 µM; on hα1A adrenergic receptor it was more than 8.7 µM; on hα2A adrenergic receptor it was more than 5.1 µM. Moreover, the “Selectivity 5-HT2A vs. 5-HT2C” value at h5-HT2A receptor [2] is listed as 1.7. The “Increase in 5-HT2A receptor affinity compared with TMA (6)” value on h5-HT2A receptor [2] (ratio of Ki values) is on record as not below 10 fold. Further, the “Active dose in humans” value in the assay with humans (ref Trachsel et al., 2013) is 15 to 30 mg.
